# Assay results taken from patent EP0726261A1, “Herbidical 1,2,4 thiadiazoles” (American Cyanamid Company, priority 1995, dated 1996).
# Columns and labels:
# Format in all cases: in vivo
# Triticum aestivum [1] = assay: Preemergence herbicidal activity (Example 67); set-up: herbicide rating, TRZAW: scale not given here; conditions: pre, 800 g/ha; for herbicide rating, TRZAW: rated about 1-3 weeks after treatment
# Summary of the method: (§1)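 Preemergence application: the soil surface is sprayed pneumatically at 3 bar, 400 L/ha, dose 800g/ha. Formulation is acetone with 0.5% alkylphenol/ethylene oxide condensate, then water. Scoring follows a rating scale about 1-3 weeks after spraying.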
# Ipomoea hederacea [2] = assay: Preemergence herbicidal activity (Example 67); conditions: pre, 800 g/ha; for herbicide rating, IPOHE: rated about 1-3 weeks after treatment
# Summary of the method: as §1
# Zea mays [3] = assay: Preemergence herbicidal activity (Example 67); conditions: pre, 800 g/ha; for herbicide rating, ZEAMX: rated about 1-3 weeks after treatment
# Summary of the method: as §1
# Veronica persica [4] = assay: Preemergence herbicidal activity (Example 67); conditions: pre, 800 g/ha; for herbicide rating, VERPE: rated about 1-3 weeks after treatment
# Summary of the method: as §1
# Chenopodium album [5] = assay: Preemergence herbicidal activity (Example 67); conditions: pre, 800 g/ha; for herbicide rating, CHEAL: rated about 1-3 weeks after treatment
# Summary of the method: as §1
# Abutilon theophrasti [6] = assay: Preemergence herbicidal activity (Example 67); conditions: pre, 800 g/ha; for herbicide rating, ABUTH: rated about 1-3 weeks after treatment
# Summary of the method: as §1
# Helianthus annuus [7] = assay: Preemergence herbicidal activity (Example 67); conditions: pre, 800 g/ha; for herbicide rating, HELAN: rated about 1-3 weeks after treatment
# Summary of the method: as §1
# Galium aparine [8] = assay: Preemergence herbicidal activity (Example 67); conditions: pre, 800 g/ha; for herbicide rating, GALAP: rated about 1-3 weeks after treatment
# Summary of the method: as §1
# Amaranthus retroflexus [9] = assay: Preemergence herbicidal activity (Example 67); conditions: pre, 800 g/ha; for herbicide rating, AMARE: rated about 1-3 weeks after treatment
# Summary of the method: as §1
# Alopecurus myosuroides [10] = assay: Preemergence herbicidal activity (Example 67); set-up: herbicide rating, ALOMY: scale not given here; conditions: pre, 800 g/ha; for herbicide rating, ALOMY: rated about 1-3 weeks after treatment
# Summary of the method: as §1
# Ipomoea hederacea [11] = assay: Postemergence herbicidal activity (Example 67); conditions: pos, 800 g/ha; for herbicide rating, IPOHE: rated after 10-21 days
# Summary of the method: (§2)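 Greenhouse plants, 3-6 weeks old, in horticultural substrate/loamy sand (1:3) received a foliar spray at 800g/ha. Herbicidal effect was scored on a rating scale 10-21 days later.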
# Setaria viridis [12] = assay: Postemergence herbicidal activity (Example 67); conditions: pos, 800 g/ha; for herbicide rating, SETVI: rated after 10-21 days
# Summary of the method: as §2
# Alopecurus myosuroides [13] = assay: Postemergence herbicidal activity (Example 67); conditions: pos, 800 g/ha; for herbicide rating, ALOMY: rated after 10-21 days
# Summary of the method: as §2
# Zea mays [14] = assay: Postemergence herbicidal activity (Example 67); conditions: pos, 800 g/ha; for herbicide rating, ZEAMX: rated after 10-21 days
# Summary of the method: as §2
# Triticum aestivum [15] = assay: Postemergence herbicidal activity (Example 67); conditions: pos, 800 g/ha; for herbicide rating, TRZAW: rated after 10-21 days
# Summary of the method: as §2
# Veronica persica [16] = assay: Postemergence herbicidal activity (Example 67); conditions: pos, 800 g/ha; for herbicide rating, VERPE: rated after 10-21 days
# Summary of the method: as §2
# Chenopodium album [17] = assay: Postemergence herbicidal activity (Example 67); conditions: pos, 800 g/ha; for herbicide rating, CHEAL: rated after 10-21 days
# Summary of the method: as §2
# Hordeum vulgare [18] = assay: Postemergence herbicidal activity (Example 67); conditions: pos, 800 g/ha; for herbicide rating, HORVW: rated after 10-21 days
# Summary of the method: as §2
# Abutilon theophrasti [19] = assay: Postemergence herbicidal activity (Example 67); conditions: pos, 800 g/ha; for herbicide rating, ABUTH: rated after 10-21 days
# Summary of the method: as §2
# Helianthus annuus [20] = assay: Postemergence herbicidal activity (Example 67); conditions: pos, 800 g/ha; for herbicide rating, HELAN: rated after 10-21 days
# Summary of the method: as §2
# Galium aparine [21] = assay: Postemergence herbicidal activity (Example 67); conditions: pos, 800 g/ha; for herbicide rating, GALAP: rated after 10-21 days
# Summary of the method: as §2
# Amaranthus retroflexus [22] = assay: Postemergence herbicidal activity (Example 67); conditions: pos, 800 g/ha; for herbicide rating, AMARE: rated after 10-21 days
# Summary of the method: as §2
# Hordeum vulgare [23] = assay: Preemergence herbicidal activity (Example 67); set-up: herbicide rating, HORVW: scale not given here; conditions: pre, 800 g/ha; for herbicide rating, HORVW: rated about 1-3 weeks after treatment
# Summary of the method: as §1
# Setaria viridis [24] = assay: Preemergence herbicidal activity (Example 67); set-up: herbicide rating, SETVI: scale not given here; conditions: pre, 800 g/ha; for herbicide rating, SETVI: rated about 1-3 weeks after treatment
# Summary of the method: as §1
structure (smiles),measurement,setting,value
CC(NC(=O)c1nsc(-c2ccc(F)cc2)n1)c1cccs1 (racemic) [Example 39],"herbicide rating, TRZAW",Triticum aestivum [1],0
same,"herbicide rating, IPOHE",Ipomoea hederacea [2],0
same,"herbicide rating, ZEAMX",Zea mays [3],0
same,"herbicide rating, VERPE",Veronica persica [4],0
same,"herbicide rating, CHEAL",Chenopodium album [5],0
same,"herbicide rating, ABUTH",Abutilon theophrasti [6],0
same,"herbicide rating, HELAN",Helianthus annuus [7],0
same,"herbicide rating, GALAP",Galium aparine [8],0
same,"herbicide rating, AMARE",Amaranthus retroflexus [9],4 (30-44%)
same,"herbicide rating, ALOMY",Alopecurus myosuroides [10],0
same,"herbicide rating, IPOHE",Ipomoea hederacea [11],4 (30-44%)
same,"herbicide rating, SETVI",Setaria viridis [12],8 (91-99%)
same,"herbicide rating, ALOMY",Alopecurus myosuroides [13],3 (16-29%)
same,"herbicide rating, ZEAMX",Zea mays [14],6 (65-79%)
same,"herbicide rating, TRZAW",Triticum aestivum [15],3 (16-29%)
same,"herbicide rating, VERPE",Veronica persica [16],2 (6-15%)
same,"herbicide rating, CHEAL",Chenopodium album [17],4 (30-44%)
same,"herbicide rating, HORVW",Hordeum vulgare [18],3 (16-29%)
same,"herbicide rating, ABUTH",Abutilon theophrasti [19],4 (30-44%)
same,"herbicide rating, HELAN",Helianthus annuus [20],6 (65-79%)
same,"herbicide rating, GALAP",Galium aparine [21],5 (45-64%)
same,"herbicide rating, AMARE",Amaranthus retroflexus [22],3 (16-29%)
same,"herbicide rating, HORVW",Hordeum vulgare [23],0
same,"herbicide rating, SETVI",Setaria viridis [24],0
O=C(NCc1cccs1)c1nc(-c2ccccc2F)ns1 [Example 50],TRZ AW rating,Triticum aestivum [1],0
same,IPO HE rating,Ipomoea hederacea [2],0
same,ZEA MX rating,Zea mays [3],0
same,VER PE rating,Veronica persica [4],0
same,CHE AL rating,Chenopodium album [5],0
same,ABU TH rating,Abutilon theophrasti [6],0
same,HEL AN rating,Helianthus annuus [7],0
same,GAL AP rating,Galium aparine [8],0
same,AMA RE rating,Amaranthus retroflexus [9],0
same,ALO MY rating,Alopecurus myosuroides [10],3 (16-29%)
same,IPO HE rating,Ipomoea hederacea [11],0
same,SET VI rating,Setaria viridis [12],5 (45-64%)
same,ALO MY rating,Alopecurus myosuroides [13],0
same,ZEA MX rating,Zea mays [14],0
same,TRZ AW rating,Triticum aestivum [15],1 (1-5%)
same,VER PE rating,Veronica persica [16],0
same,CHE AL rating,Chenopodium album [17],3 (16-29%)
same,HOR VW rating,Hordeum vulgare [18],2 (6-15%)
same,ABU TH rating,Abutilon theophrasti [19],0
same,HEL AN rating,Helianthus annuus [20],3 (16-29%)
same,GAL AP rating,Galium aparine [21],2 (6-15%)
same,AMA RE rating,Amaranthus retroflexus [22],0
same,HOR VW rating,Hordeum vulgare [23],1 (1-5%)
same,SET VI rating,Setaria viridis [24],0
"COc1ccc(-c2nsc(C(=O)N[C@@H](C)c3ccccc3)n2)cc1 [Example 2, (S)-3-(4-Methoxyphenyl)-[1,2,4]thiadiazole-5-carboxylic acid (1-phenylethyl)amide]","herbicide rating, TRZAW",Triticum aestivum [1],0
same,"herbicide rating, IPOHE",Ipomoea hederacea [2],5 (45-64%)
same,"herbicide rating, ZEAMX",Zea mays [3],0
same,"herbicide rating, VERPE",Veronica persica [4],0
same,"herbicide rating, CHEAL",Chenopodium album [5],0
same,"herbicide rating, ABUTH",Abutilon theophrasti [6],0
same,"herbicide rating, HELAN",Helianthus annuus [7],0
same,"herbicide rating, GALAP",Galium aparine [8],0
same,"herbicide rating, AMARE",Amaranthus retroflexus [9],0
same,"herbicide rating, ALOMY",Alopecurus myosuroides [10],0
same,"herbicide rating, IPOHE",Ipomoea hederacea [11],2 (6-15%)
same,"herbicide rating, SETVI",Setaria viridis [12],5 (45-64%)
same,"herbicide rating, ALOMY",Alopecurus myosuroides [13],2 (6-15%)
same,"herbicide rating, ZEAMX",Zea mays [14],1 (1-5%)
same,"herbicide rating, TRZAW",Triticum aestivum [15],2 (6-15%)
same,"herbicide rating, VERPE",Veronica persica [16],0
same,"herbicide rating, CHEAL",Chenopodium album [17],3 (16-29%)
same,"herbicide rating, HORVW",Hordeum vulgare [18],2 (6-15%)
same,"herbicide rating, ABUTH",Abutilon theophrasti [19],1 (1-5%)
same,"herbicide rating, HELAN",Helianthus annuus [20],1 (1-5%)
same,"herbicide rating, GALAP",Galium aparine [21],0
same,"herbicide rating, AMARE",Amaranthus retroflexus [22],0
same,"herbicide rating, HORVW",Hordeum vulgare [23],0
same,"herbicide rating, SETVI",Setaria viridis [24],0
O=C(Nc1ccc(F)cc1F)c1nsc(-c2cccc(C(F)(F)F)c2)n1 [Example 62],TRZ AW rating,Triticum aestivum [1],0
same,IPO HE rating,Ipomoea hederacea [2],3 (16-29%)
same,ZEA MX rating,Zea mays [3],0
same,VER PE rating,Veronica persica [4],0
same,CHE AL rating,Chenopodium album [5],0
same,ABU TH rating,Abutilon theophrasti [6],1 (1-5%)
same,HEL AN rating,Helianthus annuus [7],0
same,GAL AP rating,Galium aparine [8],0
same,AMA RE rating,Amaranthus retroflexus [9],0
same,ALO MY rating,Alopecurus myosuroides [10],3 (16-29%)
same,IPO HE rating,Ipomoea hederacea [11],1 (1-5%)
same,SET VI rating,Setaria viridis [12],5 (45-64%)
same,ALO MY rating,Alopecurus myosuroides [13],0
same,ZEA MX rating,Zea mays [14],1 (1-5%)
same,TRZ AW rating,Triticum aestivum [15],1 (1-5%)
same,VER PE rating,Veronica persica [16],0
same,CHE AL rating,Chenopodium album [17],1 (1-5%)
same,HOR VW rating,Hordeum vulgare [18],0
same,ABU TH rating,Abutilon theophrasti [19],0
same,HEL AN rating,Helianthus annuus [20],0
same,GAL AP rating,Galium aparine [21],0
same,AMA RE rating,Amaranthus retroflexus [22],0
same,HOR VW rating,Hordeum vulgare [23],0
same,SET VI rating,Setaria viridis [24],0
